Values joined by “and” are separate entries in the source; they are usually repeats but may differ in a detail not shown here. Equal entries are not always repeated.
Columns and labels:
[1] = molecular target: T1, oestrone sulphatase (E1-STS) (Homo sapiens, UniProt P08842); test: Inhibition of steroid sulphatase (E1-STS) activity in intact MCF-7 breast cancer cells; assay type: cell-based
T1 sequence (P08842 22-583): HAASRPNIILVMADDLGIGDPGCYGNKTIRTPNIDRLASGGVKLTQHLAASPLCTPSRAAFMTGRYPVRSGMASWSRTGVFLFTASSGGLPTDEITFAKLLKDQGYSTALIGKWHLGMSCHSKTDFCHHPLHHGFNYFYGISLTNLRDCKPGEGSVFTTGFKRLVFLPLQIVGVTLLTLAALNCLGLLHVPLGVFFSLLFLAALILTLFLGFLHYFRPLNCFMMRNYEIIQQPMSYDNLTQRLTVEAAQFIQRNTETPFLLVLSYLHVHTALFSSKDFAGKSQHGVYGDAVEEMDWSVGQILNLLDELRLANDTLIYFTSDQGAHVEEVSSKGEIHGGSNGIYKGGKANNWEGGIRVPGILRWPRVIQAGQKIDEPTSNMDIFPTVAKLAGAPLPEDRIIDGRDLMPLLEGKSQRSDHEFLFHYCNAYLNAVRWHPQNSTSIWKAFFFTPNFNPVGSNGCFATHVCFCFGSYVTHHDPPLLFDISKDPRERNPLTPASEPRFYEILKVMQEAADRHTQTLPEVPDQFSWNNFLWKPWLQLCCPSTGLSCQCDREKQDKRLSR

[2] = molecular target: T1, oestrone sulphatase (E1-STS); test: Inhibition of steroid sulphatase activity in placental microsomes; assay type: biochemical; parameters: from tissue; host or cells: human term placenta (microsomal preparation)
Protocol: Inhibition of Steroid Sulphatase Activity in Placental Microsomes
Sulphatase-positive human placenta from normal term pregnancies are thoroughly minced with scissors and washed once with cold phosphate buffer (pH 7.4, 50 mM) then re-suspended in cold phosphate buffer (5 ml/g tissue). Homogenisation is accomplished with an Ultra-Turrax homogeniser, using three 10 second bursts separated by 2 minute cooling periods in ice. Nuclei and cell debris are removed by centrifuging (4° C.) at 2000 g for 30 minutes and portions (2 ml) of the supernatant are stored at 20° C.
Incubations (1 ml) are carried out using a protein concentration of 100 mg/ml, substrate concentration of 20 mM [6,7-3H]oestrone-3-sulphate (specific activity 60 Ci/mmol from New England Nuclear, Boston, Mass., U.S.A.) and an incubation time of 20 minutes at 37° C. If necessary eight concentrations of compounds are employed: 0 (i.e. control); 0.05 mM; 0.1 mM; 0.2 mM; 0.4 mM; 0.6 mM; 0.8 mM; 1.0 mM. After incubation each sample is cooled and the medium (1 ml) was pipetted into separate tubes containing [14C]oestrone (7×10^3 dpm) (specific activity 97 Ci/mmol from Amersham International Radiochemical Centre, Amersham, U.K.). The mixture is shaken thoroughly for 30 seconds with toluene (5 ml). […] A portion (2 ml) of the organic phase was removed, evaporated and the 3H and 14C content of the residue determined by scintillation spectrometry. The mass of oestrone-3-sulphate hydrolysed is calculated from the 3H counts obtained (corrected for the volumes of the medium and organic phase used, and for recovery of [14C]oestrone added) and the specific activity of the substrate.

Structure (SMILES) | % Inhibition of E1-STS activity in MCF-7 cells ([1]; 0.1 μM) | % Inhibition of E1-STS activity in MCF-7 cells ([1]; 1 μM) [%] | % Inhibition of E1-STS activity in MCF-7 cells ([1]; 10 μM) [%] | % Inhibition of E1-STS activity in placental microsomes ([2]; 10 μM) | % Inhibition of E1-STS activity in placental microsomes ([2]; 25 µM) [%] | % Inhibition of E1-STS activity in placental microsomes ([2]; 50 µM) [%] | % Inhibition of E1-STS activity in placental microsomes ([2]; 100 µM) [%]
NS(=O)(=O)Oc1ccc2c(c1)C(=O)c1ccc(O)cc1C2=O [Compound 11, 2-hydroxyanthraquinone-6-O-sulphamate] | 99.3 ± 0.6% | 94.5 ± 1.6 | 90.1 ± 0.8 | 86% and 86.1 ± 0.5% | 91.2 ± 0.2 | 94.4 ± 0.5 | 95.6 ± 0.1
NS(=O)(=O)Oc1cccc(C(=O)c2cccc(OS(N)(=O)=O)c2)c1 [Compound 28, Benzophenone-3,3′-O,O-bis-sulphamate] | 75.3 ± 0.8% | 98.4 ± 0.3 | 99.9 ± 0.1 | 51.1 ± 3.7% | 73.6 ± 1.9 | 84.1 ± 1.9 | 
NS(=O)(=O)Oc1ccc(Sc2ccc(OS(N)(=O)=O)cc2)cc1 [Compound 15, Thiodiphenyl-4,4′O,O-bis-sulphamate] | 67.2 ± 1.1% | 96.6 ± 1.4 | 99.7 ± 0.1 | 65.3 ± 0.9% | 79.4 ± 0.9 | 87.4 ± 0.9 | 91.9 ± 0.4
NS(=O)(=O)Oc1ccc2oc3ccccc3c2c1 [Compound 9, Dibenzofuran-2-O-sulphamate] | 21.3 ± 1.5% | 67.9 ± 1.9 | 97.1 ± 0.8 | 28.8 ± 3.2% | 48.5 ± 0.5 | 62.0 ± 2.8 | 75.8 ± 1.2
NS(=O)(=O)Oc1ccc(Cc2ccc(O)cc2)cc1 [Compound 19, 4-sulphamoyloxy-4′ hydroxydiphenylmethane] | <10% | 39.3 ± 0.1 | 92.4 ± 0.1 | 11.7 ± 2.3% | 17.3 ± 2.7 | 22.8 ± 1.4 | 34.3 ± 1.0
NS(=O)(=O)Oc1ccc(C23CC4CC(CC(c5ccc(O)cc5)(C4)C2)C3)cc1 [Compound 21, 4′-hydroxy-(1,3-adamantanediyl)diphenyl-4-O-sulphamate] | <10% | 16.3 ± 1.5 | 64.1 ± 1.1 | <10% | 15.9 ± 0.9 | 32.5 ± 1.1 | 60.1 ± 3.4
Oc1ccc(C(O)(c2ccc(O)cc2)C2CCCCC2)cc1 [Compound 24, 1-Cyclohexyl-1,1-di-(4-hydroxyphenyl)methanol] |  |  |  | <10% | 20.0 ± 1.6 | 33.4 ± 2.2 | 44.7 ± 0.4
NS(=O)(=O)Oc1ccc(C23CC4CC(C2)CC(c2ccc(OS(N)(=O)=O)cc2)(C4)C3)cc1 [Compound 20, (1,3-Adamantanediyl)diphenyl-4,4′-O,O-bis-sulphamate] | 16.1 ± 4.0% | 32.7 ± 2.3 | 90.1 ± 0.7 | 31.4 ± 1.6% | 41.9 ± 2.3 | 62.5 ± 7.5 | 69.0 ± 4.8
NS(=O)(=O)Oc1ccc(Cc2ccc(OS(N)(=O)=O)cc2)cc1 [Compound 18, 4,4′-Bis-sulphamoyloxydiphenylmethane] | 22.2 ± 0.1% | 50.01 ± 0.1 | 93.3 ± 0.1 | 22.1 ± 0.6% | 29.4 ± 0.1 | 38.7 ± 4.9 | 53.1 ± 0.1
NS(=O)(=O)Oc1cccc(C(=O)c2cccc(O)c2)c1 [Compound 29, 3′-hydroxybenzophenone-3-O-sulphamate] | <10% | 30.7 ± 5.6 | 87.2 ± 1.8 | 18.8 ± 1.3% | 30.7 ± 3.4 | 43.7 ± 2.6 | 58.3 ± 0.1
NS(=O)(=O)Oc1ccc2c(c1)C(=O)c1ccc(OS(N)(=O)=O)cc1C2=O [Compound 10, Anthraquinone-2,6-O,O-bis-sulphamate] | 93% and 93.1 ± 2.1% | 98.6 ± 1.0 | 99.1 ± 0.1 |  | 95.7 ± 0.5 | 97.2 ± 0.3 | 97.7 ± 0.1
NS(=O)(=O)Oc1ccc(S(=O)(=O)c2ccc(OS(N)(=O)=O)cc2)cc1 [Compound 14, Sulphonyldiphenyl-4,4′-O,O-bis-sulphamate] | <10% | 50.6 ± 3.3 | 87.4 ± 2.7 | 65.0 ± 1.8% | 85.5 ± 0.6 | 92.3 ± 0.3 | 95.4 ± 0.2
NS(=O)(=O)Oc1ccc(C(=O)C=Cc2ccccc2)cc1 [Compound 8, Chalcone-4′-O-sulphamate] | <10% | 33.04 ± 10.68 | 87.89 ± 2.02 | 71.27 ± 2.42% |  | 75.79 ± 2.06 | 80.51 ± 1.87
NS(=O)(=O)Oc1ccc(C=CC(=O)c2ccccc2)cc1 [Compound 7, Chalcone-4-O-sulphamate] | <10% | 24.34 ± 11.89 | 83.81 ± 0.17 | 47.41 ± 0.05% |  | 75.11 ± 1.37 | 82.77 ± 0.23
NS(=O)(=O)Oc1ccc(C(=O)c2ccc(O)cc2)cc1 [Compound 5, 4′-Hydroxybenzophenone-4-O-sulphamate] | 34.8 ± 1.7% | 83.8 ± 0.5 | 96.7 ± 1.0 | 62.1 ± 1.4% | 82.0 ± 0.4 | 88.1 ± 0.3 | 92.8 ± 0.2
NS(=O)(=O)Oc1ccc(C(=O)c2ccccc2)cc1 [Compound 6, Benzophenone-4-O-sulphamate] | <10% | 33.04 ± 10.68 | 87.89 ± 2.02 | 76.73 ± 2.47% |  | 88.04 ± 0.82 | 92.28 ± 0.41

Reference: US20060281719A1, “Oestrogen-17-sulphamates as inhibitors of steroid sulphatase” (priority 2000, published 2006)
